Measured values: publication PMC10814857, “Functional Classification and Interaction Selectivity Landscape of the Human SH3 Domain Superfamily” (Cells, 2024)
Values joined by “and” are separate entries in the source; they are usually repeats but may differ in a detail not shown here. Equal values may be shown once. Read-outs that look alike come from different tables or passages of the source. Peptide text beside a SMILES is read from it.

Tests used:
Assay in all cases: Fluorescence polarization SH3 domain-PRP binding
[1] = molecular target: T1, SH3GLB1 SH3 domain (aa 305-365) (Homo sapiens, UniProt Q9Y371); settings: FP, 0.2 µM fluorescein-labeled peptide, SH3 domain 0-200 µM, Tris/HCl pH 7.5, 25 °C, quadratic fit
T1 construct: 305-365; GST (N); made in house; host or cells: Escherichia coli CodonPlus, Rosetta, BL21(DE3)
T1 sequence (Q9Y371 305-365): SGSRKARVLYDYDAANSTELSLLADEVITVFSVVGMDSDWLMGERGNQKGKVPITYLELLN
Description: (§1) The interaction between fluorescein-labeled proline-rich peptides (0.2 µM) and increasing concentrations of SH3 domains (ranging from 0 to 200 µM) was measured in a buffer (containing 30 mM Tris/HCl (pH 7.5), 5 mM MgCl2, and 3 mM DTT at 25 °C) in a total volume of 200 µL using a Fluoromax 4 fluorimeter in polarization mode and a quartz glass fluorescence cuvette (Hellma Ultra-Micro Cuvette 105.250-QS, Thermo Fisher Scientific, Waltham, MA USA). Excitation was performed at 470 nm and emission was measured at 560 nm. Dissociation constants (Kd) were determined by fitting the concentration-dependent binding curve to a quadratic ligand binding equation.
(§2) Fluorescence polarization measurements were performed to determine the binding affinities of SH3 domain–PRP interaction pairs from the dot blot analysis. SH3 proteins were titrated at increasing concentrations against fluorescent PRPs, which were kept at a constant concentration of 0.2 µM. GRB2-2^W193K, which is defective in the binding of PRPs such as RP1, was used as a negative control as previously described. […] The resulting data (Figure S6) allowed the evaluation of equilibrium dissociation constants (Kd) for 45 interactions between the SH3 domains and the PRPs (Figure 2B; Table S6).
(§3) Figure S6. Interactions of the SH3 domains with fluorescent PRPs measured by fluorescence polarization.
(§4) Fluorescent peptides (0.2 µM) were titrated with increasing concentrations of the corresponding SH3 domains.
(§5) GRB2-2W193K, defective in the binding of PRPs such as RP1, was used as a negative control as previously described. The x-axis represents SH3 domain concentrations as GST fusion proteins in µM, while the y-axis represents fluorescence polarization. The equilibrium dissociation constants (Kd) for the respective measurements were determined by fitting the titration curves to a quadratic ligand-binding equation (solid lines). All Kd values are […]
(§6) Error bars are derived from the fitting errors.

[2] = molecular target: T2, NPHP1 SH3 domain (Homo sapiens, UniProt O15259); settings: FP, 0.2 µM fluorescein-labeled peptide, SH3 domain 0-200 µM, Tris/HCl pH 7.5, 25 °C, quadratic fit
T2 construct: GST (N); made in house; host or cells: Escherichia coli CodonPlus, Rosetta, BL21(DE3)
T2 sequence (O15259 152-212 limits assumed): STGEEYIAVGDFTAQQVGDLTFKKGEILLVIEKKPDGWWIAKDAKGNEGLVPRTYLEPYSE
Description: as §1, §2, §3, §4, §5, §6

[3] = molecular target: T3, SH3PXD2A-1 SH3 domain (aa 166-225) (Homo sapiens, UniProt Q5TCZ1); settings: FP, 0.2 µM fluorescein-labeled peptide, SH3 domain 0-200 µM, Tris/HCl pH 7.5, 25 °C, quadratic fit
T3 construct: 166-225; GST (N); made in house; host or cells: Escherichia coli CodonPlus, Rosetta, BL21(DE3)
T3 sequence (Q5TCZ1 166-225): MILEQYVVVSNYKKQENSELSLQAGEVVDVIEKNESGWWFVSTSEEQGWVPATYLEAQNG
Description: as §1, §2, §3, §4, §5, §6

[4] = molecular target: T4, NCK1-3 SH3 domain (aa 190–252) (Homo sapiens, UniProt P16333); settings: NCK1-3 (wt), FP, 0.2 µM fluorescein-labeled peptide, SH3 domain 0-200 µM, Tris/HCl pH 7.5, 25 °C, quadratic fit
T4 construct: 190–252; GST (N); made in house; host or cells: Escherichia coli CodonPlus, Rosetta, BL21(DE3)
Description: as §1, §2, §3, §4, §5, §6

[5] = molecular target: T5, NCK1-2 SH3 domain (aa 106-165) (Homo sapiens, UniProt P16333); settings: FP, 0.2 µM fluorescein-labeled peptide, SH3 domain 0-200 µM, Tris/HCl pH 7.5, 25 °C, quadratic fit
T5 construct: 106-165; GST (N); made in house; host or cells: Escherichia coli CodonPlus, Rosetta, BL21(DE3)
Description: as §1, §2, §3, §4, §5, §6

[6] = molecular target: T6, SNX9 SH3 domain (aa 1-62) (Homo sapiens, UniProt Q9Y5X1); settings: FP, 0.2 µM fluorescein-labeled peptide, SH3 domain 0-200 µM, Tris/HCl pH 7.5, 25 °C, quadratic fit
T6 construct: 1-62; GST (N); made in house; host or cells: Escherichia coli CodonPlus, Rosetta, BL21(DE3)
T6 sequence (Q9Y5X1 1-62): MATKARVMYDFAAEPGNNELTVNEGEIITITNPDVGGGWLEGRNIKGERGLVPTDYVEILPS
Description: as §1, §2, §3, §4, §5, §6

[7] = molecular target: T7, SORBS1-1 SH3 domain (aa 793-852) (Homo sapiens, UniProt Q9BX66); settings: FP, 0.2 µM fluorescein-labeled peptide, SH3 domain 0-200 µM, Tris/HCl pH 7.5, 25 °C, quadratic fit
T7 construct: 793-852; GST (N); made in house; host or cells: Escherichia coli CodonPlus, Rosetta, BL21(DE3)
T7 sequence (Q9BX66 793-852): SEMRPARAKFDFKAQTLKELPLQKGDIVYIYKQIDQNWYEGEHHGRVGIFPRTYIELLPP
Description: as §1, §2, §3, §4, §5, §6

[8] = molecular target: T8, ITSN1-4 SH3 domain (aa 1070-1138) (Homo sapiens, UniProt Q15811); settings: FP, 0.2 µM fluorescein-labeled peptide, SH3 domain 0-200 µM, Tris/HCl pH 7.5, 25 °C, quadratic fit
T8 construct: 1070-1138; GST (N); made in house; host or cells: Escherichia coli CodonPlus, Rosetta, BL21(DE3)
T8 sequence (Q15811 1070-1138): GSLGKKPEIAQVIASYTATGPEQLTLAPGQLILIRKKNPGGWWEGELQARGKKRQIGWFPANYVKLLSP
Description: as §1, §2, §3, §4, §5, §6

[9] = molecular target: T9, NCK1-1 SH3 domain (aa 2-61) (Homo sapiens, UniProt P16333); settings: FP, 0.2 µM fluorescein-labeled peptide, SH3 domain 0-200 µM, Tris/HCl pH 7.5, 25 °C, quadratic fit
T9 construct: 2-61; GST (N); made in house; host or cells: Escherichia coli CodonPlus, Rosetta, BL21(DE3)
Description: as §1, §2, §3, §4, §5, §6

[10] = molecular target: T10, SRC SH3 domain (aa 77-140) (Homo sapiens, UniProt P12931); settings: FP, 0.2 µM fluorescein-labeled peptide, SH3 domain 0-200 µM, Tris/HCl pH 7.5, 25 °C, quadratic fit
T10 construct: 77-140; GST (N); made in house; host or cells: Escherichia coli CodonPlus, Rosetta, BL21(DE3)
T10 sequence (P12931 77-140 limits assumed): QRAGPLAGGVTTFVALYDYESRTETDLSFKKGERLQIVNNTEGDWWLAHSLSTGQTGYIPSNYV
Description: as §1, §2, §3, §4, §5, §6

[11] = molecular target: T11, RIMBP3B-1 SH3 domain (aa 832-899) (Homo sapiens, UniProt A6NNM3); settings: FP, 0.2 µM fluorescein-labeled peptide, SH3 domain 0-200 µM, Tris/HCl pH 7.5, 25 °C, quadratic fit
T11 construct: 832-899; GST (N); made in house; host or cells: Escherichia coli CodonPlus, Rosetta, BL21(DE3)
T11 sequence (A6NNM3 832-899): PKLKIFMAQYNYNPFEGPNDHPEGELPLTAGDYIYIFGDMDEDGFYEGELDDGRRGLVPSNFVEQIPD
Description: as §1, §2, §3, §4, §5, §6

[12] = molecular target: T12, RASA1 SH3 domain (aa 279–341) (Homo sapiens, UniProt P20936); settings: FP, 0.2 µM fluorescein-labeled peptide, SH3 domain 0-200 µM, Tris/HCl pH 7.5, 25 °C, quadratic fit
T12 construct: 279–341; GST (N); made in house; host or cells: Escherichia coli CodonPlus, Rosetta, BL21(DE3)
T12 sequence (P20936 279-341): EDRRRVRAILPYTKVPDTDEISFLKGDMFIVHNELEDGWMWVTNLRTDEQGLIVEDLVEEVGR
Description: as §1, §2, §3, §4, §5, §6

Structure (SMILES) | Kd [1] | Kd [2] | Kd [3] | Kd ([4]; read-out: Kd) | Kd ([5]; read-out: Kd) | Kd [6] | Kd [7] | Kd [8] | Kd ([9]; read-out: Kd) | Kd [10] | Kd [11] | Kd [12] | Kd [4] | Kd [5] | Kd [9]
CC(C)C[C@H](NC(=O)[C@@H]1CCCN1C(=O)[C@@H](NC(=O)[C@H](CCCNC(=N)N)NC(=O)[C@@H]1CCCN1C(=O)[C@H](CO)NC(=O)[C@H](CC(N)=O)NC(=O)[C@@H]1CCCN1C(=O)[C@H](C)NC(=O)[C@@H](N)CO)[C@@H](C)O)C(=O)N[C@H](C(=O)N1CCC[C@H]1C(=O)N1CCC[C@H]1C(=O)N1CCC[C@H]1C(=O)N[C@@H](C)C(=O)N[C@@H](CO)C(=O)O)[C@@H](C)O [Peptide P1] (H-SAPNSPRTPLTPPPAS-OH) | > 200 µM | > 200 µM | > 200 µM | > 200 µM | > 200 µM | > 200 µM | > 200 µM | > 200 µM | > 200 µM | > 200 µM | > 200 µM | > 200 µM |  |  | 
CC[C@H](C)[C@H](NC(=O)[C@H](Cc1c[nH]cn1)NC(=O)[C@@H](N)CCC(N)=O)C(=O)N1CCC[C@H]1C(=O)N[C@@H](CCCCN)C(=O)N[C@@H](CC(C)C)C(=O)N1CCC[C@H]1C(=O)N1CCC[C@H]1C(=O)N[C@@H](CCCCN)C(=O)N[C@H](C(=O)N[C@@H](Cc1ccc(O)cc1)C(=O)O)[C@@H](C)O [Peptide P10] (H-QHIPKLPPKTY-OH; N-terminus and C-terminus assumed) | > 200 µM | > 200 µM | > 200 µM | > 200 µM | > 200 µM | > 200 µM | > 200 µM | > 200 µM | > 200 µM | > 200 µM | > 200 µM | > 200 µM |  |  | 
C[C@H](N)C(=O)N[C@@H](Cc1ccccc1)C(=O)N[C@@H](Cc1ccccc1)C(=O)N1CCC[C@H]1C(=O)N[C@@H](CC(N)=O)C(=O)N[C@@H](CO)C(=O)N1CCC[C@H]1C(=O)N[C@@H](CO)C(=O)N1CCC[C@H]1C(=O)N[C@@H](Cc1ccccc1)C(=O)N[C@H](C(=O)N1CCC[C@H]1C(=O)N1CCC[C@H]1C(=O)N1CCC[C@H]1C(=O)N1CCC[C@H]1C(=O)N[C@@H](CCC(N)=O)C(=O)N[C@H](C(=O)N1CCC[C@H]1C(=O)N[C@@H](CO)C(=O)N1CCC[C@H]1C(=O)N[C@@H](Cc1c[nH]cn1)C(=O)NCC(=O)N[C@H](C(=O)O)[C@@H](C)O)[C@@H](C)O)[C@@H](C)O [Peptide P7] (H-AFFPNSPSPFTPPPPQTPSPHGT-OH) | > 200 µM | > 200 µM | > 200 µM | > 200 µM | > 200 µM | > 200 µM | 13.2 µM | > 200 µM | > 200 µM | 13.3 µM | 15 µM | > 200 µM |  |  | 
CC[C@H](C)[C@H](N)C(=O)N[C@@H](C)C(=O)NCC(=O)N1CCC[C@H]1C(=O)N1CCC[C@H]1C(=O)N[C@H](C(=O)N1CCC[C@H]1C(=O)N1CCC[C@H]1C(=O)N[C@@H](CCCNC(=N)N)C(=O)N[C@@H](CCC(N)=O)C(=O)N[C@@H](CO)C(=O)O)C(C)C [Peptide P9] (H-IAGPPVPPRQS-OH) | > 200 µM | > 200 µM | > 200 µM | 9 µM and 0.9 µM | > 200 µM | > 200 µM | > 200 µM | > 200 µM | > 200 µM | > 200 µM | > 200 µM | > 200 µM | tightly bound | do not bind | do not bind
CC[C@H](C)[C@H](NC(=O)[C@H](C)NC(=O)[C@@H]1CCCN1C(=O)[C@@H]1CCCN1C(=O)[C@H](CO)NC(=O)[C@H](CC(=O)O)NC(=O)[C@@H](N)CC(C)C)C(=O)N1CCC[C@H]1C(=O)N1CCC[C@H]1C(=O)N[C@@H](CCCNC(=N)N)C(=O)N[C@@H](CCC(N)=O)C(=O)N1CCC[C@H]1C(=O)N[C@H](C(=O)N[C@@H](CO)C(=O)N[C@@H](CCCCN)C(=O)O)[C@@H](C)O [Peptide P4] (H-LDSPPAIPPRQPTSK-OH) | > 200 µM | > 200 µM | > 200 µM | > 200 µM | > 200 µM | > 200 µM | > 200 µM | > 200 µM | > 200 µM | > 200 µM | > 200 µM | > 200 µM |  |  | 
